Data reported in US20250059171A1 (Hoffmann-La Roche Inc., priority 2021, published 2025).
pIC50: −log10 of the molar value.

Columns and labels:
[1] = biological target: HCoV-229E 3CLpro (Human coronavirus 229E, UniProt P0C6X1); assay: HCoV-229E 3CLpro inhibition assay (FRET); format: biochemical
[2] = biological target: SARS-CoV-2 3CLpro (Severe acute respiratory syndrome coronavirus 2, UniProt P0DTD1); assay: biochemical
[3] = biological target: SARS-CoV 3CLpro (Severe acute respiratory syndrome coronavirus, UniProt P0C6X7); assay: biochemical
[4] = biological target: MERS-CoV 3CLpro (Middle East respiratory syndrome-related coronavirus, UniProt K9N7C7); assay: biochemical
Chain of MERS-CoV 3CLpro (K9N7C7 3248-3553): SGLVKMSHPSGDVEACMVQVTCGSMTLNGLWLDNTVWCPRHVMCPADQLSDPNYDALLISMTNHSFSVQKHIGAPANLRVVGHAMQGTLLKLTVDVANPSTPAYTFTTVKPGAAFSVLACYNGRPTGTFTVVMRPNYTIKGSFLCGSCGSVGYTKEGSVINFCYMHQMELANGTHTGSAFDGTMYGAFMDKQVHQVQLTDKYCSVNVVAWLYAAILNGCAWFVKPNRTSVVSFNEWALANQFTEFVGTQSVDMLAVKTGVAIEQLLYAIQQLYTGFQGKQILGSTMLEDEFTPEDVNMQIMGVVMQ

Chain of HCoV-229E 3CLpro (P0C6X1 2966-3267): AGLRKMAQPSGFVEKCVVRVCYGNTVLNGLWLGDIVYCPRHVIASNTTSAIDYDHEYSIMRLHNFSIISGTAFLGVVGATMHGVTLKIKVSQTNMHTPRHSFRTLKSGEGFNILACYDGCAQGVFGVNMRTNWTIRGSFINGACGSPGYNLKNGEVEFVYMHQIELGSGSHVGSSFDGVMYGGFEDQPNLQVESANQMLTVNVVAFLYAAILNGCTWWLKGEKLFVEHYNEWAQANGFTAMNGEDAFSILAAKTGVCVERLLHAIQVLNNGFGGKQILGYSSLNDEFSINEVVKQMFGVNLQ

Compound: C[C@H]1C[C@@H](C(=O)NN(C[C@@H]2CCNC2=O)C(=O)[C@H](F)Cl)N(C(=O)[C@@H](NC(=O)C(F)(F)F)C(C)(C)C)C1 [Example 27, N-[(1S)-1-[(2S,4S)-2-[[[(2R)-2-chloro-2-fluoro-acetyl]-[[(3S)-2-oxopyrrolidin-3-yl]methyl]amino]carbamoyl]-4-methyl-pyrrolidine-1-carbonyl]-2,2-dimethyl-propyl]-2,2,2-trifluoro-acetamide]
- pIC50 [1]: 7.54
- pIC50 [2]: 7.54
- pIC50 [3]: 7.70
- pIC50 [4]: 6.87

Compound: CC(C)(C)[C@H](NC(=O)C(F)F)C(=O)N1C[C@@H]2CCC[C@@H]2[C@H]1C(=O)NN(C[C@@H]1CCNC1=O)C(=O)[C@H](F)Cl [Example 28, N-[(1S)-1-[(3S,3aS,6aR)-3-[[[(2R)-2-chloro-2-fluoro-acetyl]-[[(3S)-2-oxopyrrolidin-3-yl]methyl]amino]carbamoyl]-3,3a,4,5,6,6a-hexahydro-1H-cyclopenta[c]pyrrole-2-carbonyl]-2,2-dimethyl-propyl]-2,2-difluoro-acetamide]
- pIC50 [1]: 6.40
- pIC50 [2]: 8.10
- pIC50 [3]: 7.42
- pIC50 [4]: 5.99

Compound: CC(=O)N[C@H](C(=O)N1C[C@@H]2CCC[C@@H]2[C@H]1C(=O)NN(C[C@@H]1CCNC1=O)C(=O)[C@H](F)Cl)C(C)(C)C [Example 29, N-[(1S)-1-[(3S,3aS,6aR)-3-[[[(2R)-2-chloro-2-fluoro-acetyl]-[[(3S)-2-oxopyrrolidin-3-yl]methyl]amino]carbamoyl]-3,3a,4,5,6,6a-hexahydro-1H-cyclopenta[c]pyrrole-2-carbonyl]-2,2-dimethyl-propyl]acetamide]
- pIC50 [1]: 7.55
- pIC50 [2]: 8.00
- pIC50 [3]: 7.96
- pIC50 [4]: 7.17

Compound: CC(F)(F)C(=O)N[C@H](C(=O)N1C[C@@H]2CCC[C@@H]2[C@H]1C(=O)NN(C[C@@H]1CCNC1=O)C(=O)[C@H](F)Cl)C(C)(C)C [Example 30, N-[(1S)-1-[(3S,3aS,6aR)-3-[[[(2R)-2-chloro-2-fluoro-acetyl]-[[(3S)-2-oxopyrrolidin-3-yl]methyl]amino]carbamoyl]-3,3a,4,5,6,6a-hexahydro-1H-cyclopenta[c]pyrrole-2-carbonyl]-2,2-dimethyl-propyl]-2,2-difluoro-propanamide]
- pIC50 [1]: 7.31
- pIC50 [2]: 8.10
- pIC50 [3]: 7.82
- pIC50 [4]: 6.84

Compound: CC(C)(C)[C@H](NC(=O)C1CC1)C(=O)N1C[C@@H]2CCC[C@@H]2[C@H]1C(=O)NN(C[C@@H]1CCNC1=O)C(=O)[C@H](F)Cl [Example 31, N-[(1S)-1-[(3S,3aS,6aR)-3-[[[(2R)-2-chloro-2-fluoro-acetyl]-[[(3S)-2-oxopyrrolidin-3-yl]methyl]amino]carbamoyl]-3,3a,4,5,6,6a-hexahydro-1H-cyclopenta[c]pyrrole-2-carbonyl]-2,2-dimethyl-propyl]cyclopropanecarboxamide]
- pIC50 [1]: 7.55
- pIC50 [2]: 8.10
- pIC50 [3]: 7.92
- pIC50 [4]: 7.12

Compound: CCC(=O)N[C@H](C(=O)N1C[C@@H]2CCC[C@@H]2[C@H]1C(=O)NN(C[C@@H]1CCNC1=O)C(=O)[C@H](F)Cl)C(C)(C)C [Example 32, N-[(1S)-1-[(3S,3aS,6aR)-3-[[[(2R)-2-chloro-2-fluoro-acetyl]-[[(3S)-2-oxopyrrolidin-3-yl]methyl]amino]carbamoyl]-3,3a,4,5,6,6a-hexahydro-1H-cyclopenta[c]pyrrole-2-carbonyl]-2,2-dimethyl-propyl]propanamide]
- pIC50 [1]: 7.64
- pIC50 [2]: 8.15
- pIC50 [3]: 8.00
- pIC50 [4]: 7.10

Compound: CC(C)C(=O)N[C@H](C(=O)N1C[C@@H]2CCC[C@@H]2[C@H]1C(=O)NN(C[C@@H]1CCNC1=O)C(=O)[C@H](F)Cl)C(C)(C)C [Example 33, N-[(1S)-1-[(3S,3aS,6aR)-3-[[[(2R)-2-chloro-2-fluoro-acetyl]-[[(3S)-2-oxopyrrolidin-3-yl]methyl]amino]carbamoyl]-3,3a,4,5,6,6a-hexahydro-1H-cyclopenta[c]pyrrole-2-carbonyl]-2,2-dimethyl-propyl]-2-methyl-propanamide]
- pIC50 [1]: 7.57
- pIC50 [2]: 8.15
- pIC50 [3]: 8.10
- pIC50 [4]: 7.10

Compound: CC(C)(F)C(=O)N[C@H](C(=O)N1C[C@@H]2CCC[C@@H]2[C@H]1C(=O)NN(C[C@@H]1CCNC1=O)C(=O)[C@H](F)Cl)C(C)(C)C [Example 35, N-[(1S)-1-[(3S,3aS,6aR)-3-[[[(2R)-2-chloro-2-fluoro-acetyl]-[[(3S)-2-oxopyrrolidin-3-yl]methyl]amino]carbamoyl]-3,3a,4,5,6,6a-hexahydro-1H-cyclopenta[c]pyrrole-2-carbonyl]-2,2-dimethyl-propyl]-2-fluoro-2-methyl-propanamide]
- pIC50 [1]: 7.64
- pIC50 [2]: 8.10
- pIC50 [3]: 8.10
- pIC50 [4]: 7.22

Compound: CC[C@H](C)[C@H](NC(=O)C1CC1)C(=O)N1C[C@@H]2CCC[C@@H]2[C@H]1C(=O)NN(C[C@@H]1CCNC1=O)C(=O)[C@H](F)Cl [Example 37, N-[(1S,2S)-1-[(3S,3aS,6aR)-3-[[[(2R)-2-chloro-2-fluoro-acetyl]-[[(3S)-2-oxopyrrolidin-3-yl]methyl]amino]carbamoyl]-3,3a,4,5,6,6a-hexahydro-1H-cyclopenta[c]pyrrole-2-carbonyl]-2-methyl-butyl]cyclopropanecarboxamide]
- pIC50 [1]: 7.54
- pIC50 [2]: 8.05
- pIC50 [3]: 7.96
- pIC50 [4]: 7.12

Compound: CCC(=O)N[C@H](C(=O)N1C[C@@H]2CCC[C@@H]2[C@H]1C(=O)NN(C[C@@H]1CCNC1=O)C(=O)[C@H](F)Cl)[C@@H](C)CC [Example 38, N-[(1S,2S)-1-[(3S,3aS,6aR)-3-[[[(2R)-2-chloro-2-fluoro-acetyl]-[[(3S)-2-oxopyrrolidin-3-yl]methyl]amino]carbamoyl]-3,3a,4,5,6,6a-hexahydro-1H-cyclopenta[c]pyrrole-2-carbonyl]-2-methyl-butyl]propanamide]
- pIC50 [1]: 7.54
- pIC50 [2]: 8.10
- pIC50 [3]: 8.00
- pIC50 [4]: 7.14

Compound: CC[C@H](C)[C@H](NC(=O)C(F)F)C(=O)N1C[C@@H]2CCC[C@@H]2[C@H]1C(=O)NN(C[C@@H]1CCNC1=O)C(=O)[C@H](F)Cl [Example 39, N-[(1S,2S)-1-[(3S,3aS,6aR)-3-[[[(2R)-2-chloro-2-fluoro-acetyl]-[[(3S)-2-oxopyrrolidin-3-yl]methyl]amino]carbamoyl]-3,3a,4,5,6,6a-hexahydro-1H-cyclopenta[c]pyrrole-2-carbonyl]-2-methyl-butyl]-2,2-difluoro-acetamide]
- pIC50 [1]: 7.54
- pIC50 [2]: 8.05
- pIC50 [3]: 7.96
- pIC50 [4]: 7.15

Compound: CC[C@H](C)[C@H](NC(=O)C(C)(F)F)C(=O)N1C[C@@H]2CCC[C@@H]2[C@H]1C(=O)NN(C[C@@H]1CCNC1=O)C(=O)[C@H](F)Cl [Example 40, N-[(1S,2S)-1-[(3S,3aS,6aR)-3-[[[(2R)-2-chloro-2-fluoro-acetyl]-[[(3S)-2-oxopyrrolidin-3-yl]methyl]amino]carbamoyl]-3,3a,4,5,6,6a-hexahydro-1H-cyclopenta[c]pyrrole-2-carbonyl]-2-methyl-butyl]-2,2-difluoro-propanamide]
- pIC50 [1]: 7.57
- pIC50 [2]: 7.68
- pIC50 [3]: 7.89
- pIC50 [4]: 7.30

Compound: CC[C@H](C)[C@H](NC(=O)C(C)(C)F)C(=O)N1C[C@@H]2CCC[C@@H]2[C@H]1C(=O)NN(C[C@@H]1CCNC1=O)C(=O)[C@H](F)Cl [Example 42, N-[(1S,2S)-1-[(3S,3aS,6aR)-3-[[[(2R)-2-chloro-2-fluoro-acetyl]-[[(3S)-2-oxopyrrolidin-3-yl]methyl]amino]carbamoyl]-3,3a,4,5,6,6a-hexahydro-1H-cyclopenta[c]pyrrole-2-carbonyl]-2-methyl-butyl]-2-fluoro-2-methyl-propanamide]
- pIC50 [1]: 7.62
- pIC50 [2]: 8.15
- pIC50 [3]: 8.05
- pIC50 [4]: 7.09

Compound: CC[C@H](C)[C@H](NC(=O)C(C)(C)C)C(=O)N1C[C@@H]2CCC[C@@H]2[C@H]1C(=O)NN(C[C@@H]1CCNC1=O)C(=O)[C@H](F)Cl [Example 44, N-[(1S,2S)-1-[(3S,3aS,6aR)-3-[[[(2R)-2-chloro-2-fluoro-acetyl]-[[(3S)-2-oxopyrrolidin-3-yl]methyl]amino]carbamoyl]-3,3a,4,5,6,6a-hexahydro-1H-cyclopenta[c]pyrrole-2-carbonyl]-2-methyl-butyl]-2,2-dimethyl-propanamide]
- pIC50 [1]: 7.64
- pIC50 [2]: 8.10
- pIC50 [3]: 7.96
- pIC50 [4]: 7.26

Compound: CC[C@H](C)[C@H](NC(=O)CC(F)(F)F)C(=O)N1C[C@@H]2CCC[C@@H]2[C@H]1C(=O)NN(C[C@@H]1CCNC1=O)C(=O)[C@H](F)Cl [Example 45, N-[(1S,2S)-1-[(3S,3aS,6aR)-3-[[[(2R)-2-chloro-2-fluoro-acetyl]-[[(3S)-2-oxopyrrolidin-3-yl]methyl]amino]carbamoyl]-3,3a,4,5,6,6a-hexahydro-1H-cyclopenta[c]pyrrole-2-carbonyl]-2-methyl-butyl]-3,3,3-trifluoro-propanamide]
- pIC50 [1]: 7.46
- pIC50 [2]: 7.72
- pIC50 [3]: 8.00
- pIC50 [4]: 6.98

Compound: CCCC(=O)N[C@H](C(=O)N1C[C@@H]2CCC[C@@H]2[C@H]1C(=O)NN(C[C@@H]1CCNC1=O)C(=O)[C@H](F)Cl)[C@@H](C)CC [Example 46, N-[(1S,2S)-1-[(3S,3aS,6aR)-3-[[[(2R)-2-chloro-2-fluoro-acetyl]-[[(3S)-2-oxopyrrolidin-3-yl]methyl]amino]carbamoyl]-3,3a,4,5,6,6a-hexahydro-1H-cyclopenta[c]pyrrole-2-carbonyl]-2-methyl-butyl]butanamide]
- pIC50 [1]: 7.31
- pIC50 [2]: 8.10
- pIC50 [3]: 7.54
- pIC50 [4]: 6.82
